Drawing on the NIST ThermoML archive (doi:10.1021/acs.jced.8b00142), this text covers mass density for 3 molecules.

Molecules are shown by their SMILES. Numbers after ± are expanded uncertainties.

For data set [1] the following is noted: 86 kPa, Liquid, Vibrating tube method.
Data set [2] is described as follows: wn = mass fraction of the nth substance listed. The settings on record: 86 kPa, Liquid, Vibrating tube method.

Broadly, the mass density is the mass of a sample divided by its volume. With `CCCC[n+]1ccccc1.F[B-](F)(F)F` [1-butylpyridinium tetrafluoroborate], the mass density in data set [1] (298.15 K) is 1213.9 ± 4.2 kg/m3; in data set [1] (313.15 K), 1203.8 ± 4.2 kg/m3; in data set [1] (323.15 K), 1197 ± 4.2 kg/m3; in data set [1] (333.15 K) it was 1190.3 ± 4.2 kg/m3; in data set [1] (343.15 K), 1183.6 ± 4.2 kg/m3.
As for `CN(CCO)CCO` [N-methyldiethanolamine], the mass density in data set [1] (298.15 K) worked out at 1036.4 ± 4.1 kg/m3; in data set [1] (313.15 K), 1025.1 ± 4.1 kg/m3; in data set [1] (323.15 K) it was 1017.5 ± 4.1 kg/m3; in data set [1] (333.15 K), 1009.9 ± 4.1 kg/m3; in data set [1] (343.15 K), 1002.2 ± 4.1 kg/m3.
For `CN(CCO)CCO` [N-methyldiethanolamine] + O, the mass density worked out at 1020.5 ± 4 kg/m3 in data set [2] (298.15 K, w1 = 0.2573); 1024.7 ± 4 kg/m3 in data set [2] (298.15 K, w1 = 0.3); 1042.5 ± 4 kg/m3 in data set [2] (298.15 K, w1 = 0.5); 1013.5 ± 4 kg/m3 in data set [2] (313.15 K, w1 = 0.2573); 1017.1 ± 4 kg/m3 in data set [2] (313.15 K, w1 = 0.3); 1032.8 ± 4 kg/m3 in data set [2] (313.15 K, w1 = 0.5). Further, the mass density in data set [2] (323.15 K, w1 = 0.3) was found to be 1009.6 ± 4 kg/m3; in data set [2] (323.15 K, w1 = 0.5), 1026 ± 4 kg/m3; in data set [2] (333.15 K, w1 = 0.3), 1002.7 ± 4 kg/m3; in data set [2] (333.15 K, w1 = 0.5), 1018.7 ± 4 kg/m3; in data set [2] (343.15 K, w1 = 0.3), 995.1 ± 4 kg/m3; in data set [2] (343.15 K, w1 = 0.5) it was 1011.2 ± 4 kg/m3. The mass density in data set [2] (348.17 K, w1 = 0.2573) was 988.9 ± 4 kg/m3.
